≈ marks a conversion by molar mass, not a printed value. Like-named read-outs stand apart in the source and are kept apart here.
How the values were obtained:
H. pylori [1] = details: Helicobacter pylori
H. pylori [2] = test: flow cytometry detection of cell viability (Live/Dead BacLight); details: sub-MIC treated samples, SYTO 9/propidium iodide
[3] = test system: L. rhamnosus GG ATCC 53103; test: MIC and MBC by broth microdilution in MRSB; assay type: cell-based, Lactobacillus rhamnosus; details: Lacticaseibacillus rhamnosus
[4] = test system: H. pylori ATCC43504 planktonic and biofilm phenotypes; assay type: cell-based, Helicobacter pylori
L. reuteri DSM 17938 = test: MIC and MBC by broth microdilution in MRSB; assay type: cell-based, Lactobacillus reuteri; details: Limosilactobacillus reuteri
[5] = test system: H. pylori ATCC43504 biofilm; test: antibiofilm activity (alamarBlue, CFU count, crystal violet, Live/Dead fluorescence microscopy); assay type: cell-based, Helicobacter pylori; details: for CFU count of biofilm / inhibition of H. pylori biofilm development: sub-MIC (carvacrol, thymol 64 µg/mL; amoxicillin 0.016 µg/mL); for biofilm observed by fluorescence microscopy (Live/Dead): sub-MIC treated samples, 72 h of incubation
Protocol: The CA inhibitors and amoxicillin were diluted in liquid culture medium consisting of BB supplemented with 2% (v/v) of FBS and 0.3% (w/v) of glucose. […] The controls consisted of: […] The antibiofilm assay was performed in 96-well flat bottom microtiter plates (Eppendorf, Hamburg, Germany). The biofilm formation in the controls and treated samples was evaluated in 35 mm Petri dishes (Eppendorf, Hamburg, Germany) stained with Live/Dead staining and visualized by fluorescence microscope. Three independent experiments were performed in triplicate. The plates were incubated at 37 °C for 72 h under microaerophilic conditions. After 72 h of incubation, the minimum biofilm inhibitory concentration (MBIC) was determined through the alamarBlue assay, the CFU count, and the crystal violet (CV) assay (Sigma Aldrich, St. Louis, MO, USA). In detail, at the end of the incubation, the non-adherent cells, corresponding to the planktonic supernatant, were removed, and the biofilms were washed with 100 µL of DPBS (Sigma Aldrich, St. Louis, MO, USA). AlamarBlue was diluted to 10% in the selected culture medium, and 100 µL was added to each sample in the wells. The samples were incubated for 4 h at 37 °C in microaerophilic conditions, and subsequently the percentage of alamarBlue reduction was determined. The CFU count was carried out starting from the wells stained with alamarBlue. […] Serial dilutions of the stock were performed in DPBS, plated on the selected agar, and incubated at 37 °C under microaerophilic conditions for 3–5 days. The antibiofilm activity was also determined through crystal violet staining following the procedure indicated. Then, the absorbance at 590 nm was measured, and the percentage of biofilm biomass, normalized to the control, was determined. […] The biofilms developed in 35 mm Petri dishes were stained with Live/Dead™ BacLight™ Bacterial Viability Kit (Life Technologies Carlsbad, CA, USA) as previously reported and immediately visualized at the fluorescence microscope.

H. pylori ATCC43504 = test: MIC and MBC by broth micro-dilution with alamarBlue; assay type: cell-based; details: Helicobacter pylori
Protocol: H. pylori colonies were collected and inoculated in Brucella Broth (BB; Oxoid Ltd., Hampshire, UK) added with 2% (v/v) of foetal bovine serum (FBS; Sigma Aldrich, Milan, Italy). […] Oxoid Ltd., Hampshire, UK). […] The MIC was determined by the broth micro-dilution method, following the guidelines of the Clinical and Laboratory Standards Institute. […] Carvacrol and thymol were resuspended in dimethyl sulfoxide (DMSO, Sigma-Aldrich, Milan, Italy) and were diluted in the liquid culture medium described above. […] The controls consisted of: (I) H. pylori broth culture; (II) BB plus 2% (v/v) of FBS, with the addition of the two CA inhibitors or amoxicillin at different concentrations; (III) just BB plus 2% (v/v) of FBS. Three independent experiments were performed in triplicate. The plates were then incubated at 37 °C for 72 h under microaerophilic conditions. […] AlamarBlue was added at 10% in each well, following the manufacturer instructions, and the plates were placed in an incubator for 4 h at 37 °C in microaerophilic conditions. After the incubation, the percentage of alamarBlue reduction of treated and untreated samples was determined, as previously described. The minimum bactericidal concentration (MBC) was determined by using the same wells stained with alamarBlue. Briefly, 100 μL of the bacterial suspensions, taken from the blue-violet wells, were seeded on the selected agar plates and incubated at 37 °C for 3–5 days in microaerophilic conditions.

[6] = test system: L. acidophilus ATCC SD5214; test: MIC and MBC by broth microdilution in MRSB; assay type: cell-based; details: Lactobacillus acidophilus
AGS cells = test system: AGS cells; set-up: method as in PMID 33228095, PMID 33805064; details: read-out: IC50 against AGS cells; cited from earlier work
[7] = test system: several reference and clinical H. pylori strains; set-up: method as in PMID 33228095, PMID 33805064; details: cited from earlier work
MgCA = MgCA (Malassezia globosa, UniProt A8Q1N3); test: stopped-flow CO2 hydrase assay, MgCA; assay type: biochemical
HpCAβ [8] = molecular target: T1, HpCAβ (Helicobacter pylori, UniProt O24855); test: biochemical; details: mean from three assays, errors ±5–10%
T1 sequence (O24855 1-221): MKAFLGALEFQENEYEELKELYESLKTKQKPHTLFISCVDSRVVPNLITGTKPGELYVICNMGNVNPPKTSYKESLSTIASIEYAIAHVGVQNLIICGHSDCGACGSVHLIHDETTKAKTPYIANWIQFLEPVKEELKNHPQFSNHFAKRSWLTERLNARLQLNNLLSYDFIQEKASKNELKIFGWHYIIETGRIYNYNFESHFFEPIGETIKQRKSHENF

SmuCA = SmuCA (Streptococcus mutans, UniProt Q8DVY1); test: stopped-flow CO2 hydrase assay, SmuCA; assay type: biochemical
(UniProt Q9ZK30) = test: biochemical; set-up: species or system Helicobacter pylori; details: read-out: Ki HpCAα
PgiCAβ = PgiCAβ (Porphyromonas gingivalis, UniProt B2RL07); test: stopped-flow CO2 hydrase assay, PgiCAβ; assay type: biochemical
[9] = test system: H. pylori ATCC43504/NCTC11637; details: characterisation of reference strain ATCC43504/NCTC11637; no reference given; cited from earlier work
hCA VI = molecular target: T2, hCA VI (Homo sapiens, UniProt P23280); test: stopped-flow CO2 hydrase assay, hCA VI; assay type: biochemical
T2 construct: made in house; host or cells: Escherichia coli (DE3)

hCA I = molecular target: T3, hCA I (Homo sapiens, UniProt P00915); test: stopped-flow CO2 hydrase assay, hCA I; assay type: biochemical
T3 construct: made in house; host or cells: Escherichia coli (DE3)

hCA II = molecular target: T4, hCA II (Homo sapiens, UniProt P00918); test: stopped-flow CO2 hydrase assay, hCA II; assay type: biochemical
T4 construct: made in house; host or cells: Escherichia coli (DE3)

HpCAβ [10] = molecular target: T1, HpCAβ; details: both HpCAs; cited from earlier work
[11] = ATCC53103, L. rhamnosus GG ATCC 53103, 24 h, anaerobic, read-out: MIC
[12] = ATCC53103, L. rhamnosus GG ATCC 53103, read-out: MBC
[13] = Planktonic T (treated with sub-MIC concentration)
[14] = biofilm phenotype, sub-MIC concentration
[15] = planktonic phenotype, sub-MIC concentration
[16] = DSM17938, L. reuteri DSM 17938, 24 h, anaerobic, read-out: MIC
[17] = DSM17938, L. reuteri DSM 17938, read-out: MBC
[18] = H. pylori ATCC43504, 72 h, microaerophilic, read-out: MIC
[19] = H. pylori ATCC43504, read-out: MBC
[20] = ATCCSD5214, L. acidophilus ATCC SD5214, 24 h, anaerobic, read-out: MIC
[21] = ATCCSD5214, L. acidophilus ATCC SD5214, read-out: MBC

Sequence of MgCA (A8Q1N3 1-241): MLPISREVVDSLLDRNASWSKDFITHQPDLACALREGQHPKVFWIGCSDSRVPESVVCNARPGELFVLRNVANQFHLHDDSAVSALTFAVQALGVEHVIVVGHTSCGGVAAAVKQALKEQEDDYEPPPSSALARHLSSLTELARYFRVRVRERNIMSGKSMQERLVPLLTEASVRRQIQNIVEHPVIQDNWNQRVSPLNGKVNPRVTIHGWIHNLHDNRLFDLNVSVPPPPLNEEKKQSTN
Sequence of SmuCA (Q8DVY1 1-166): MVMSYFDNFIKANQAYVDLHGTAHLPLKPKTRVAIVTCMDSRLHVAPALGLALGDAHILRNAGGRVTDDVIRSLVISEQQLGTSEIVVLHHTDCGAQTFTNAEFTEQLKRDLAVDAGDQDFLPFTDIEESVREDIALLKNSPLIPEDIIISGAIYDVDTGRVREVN
Sequence of PgiCAβ (B2RL07 19-242): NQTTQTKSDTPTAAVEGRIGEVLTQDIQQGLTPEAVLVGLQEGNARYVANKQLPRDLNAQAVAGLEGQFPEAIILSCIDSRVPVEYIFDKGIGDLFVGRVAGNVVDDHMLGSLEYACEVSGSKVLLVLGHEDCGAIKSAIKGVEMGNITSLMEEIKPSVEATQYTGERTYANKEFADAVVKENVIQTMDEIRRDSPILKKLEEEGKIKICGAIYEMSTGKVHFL
Sequence of (UniProt Q9ZK30) (Q9ZK30 19-247 limits assumed): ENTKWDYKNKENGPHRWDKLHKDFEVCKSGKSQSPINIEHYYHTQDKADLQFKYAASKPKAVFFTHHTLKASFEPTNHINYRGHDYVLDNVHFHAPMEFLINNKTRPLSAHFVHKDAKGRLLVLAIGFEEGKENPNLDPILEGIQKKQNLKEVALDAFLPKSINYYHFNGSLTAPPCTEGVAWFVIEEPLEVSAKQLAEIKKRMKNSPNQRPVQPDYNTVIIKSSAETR
T3 sequence (P00915 whole entry): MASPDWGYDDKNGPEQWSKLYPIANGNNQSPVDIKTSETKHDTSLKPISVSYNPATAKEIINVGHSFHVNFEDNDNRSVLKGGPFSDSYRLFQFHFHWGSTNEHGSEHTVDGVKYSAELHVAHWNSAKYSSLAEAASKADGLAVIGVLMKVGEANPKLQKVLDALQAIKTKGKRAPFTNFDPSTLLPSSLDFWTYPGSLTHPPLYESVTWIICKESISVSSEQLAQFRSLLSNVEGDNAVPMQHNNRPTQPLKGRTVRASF
T2 sequence (P23280 18-308): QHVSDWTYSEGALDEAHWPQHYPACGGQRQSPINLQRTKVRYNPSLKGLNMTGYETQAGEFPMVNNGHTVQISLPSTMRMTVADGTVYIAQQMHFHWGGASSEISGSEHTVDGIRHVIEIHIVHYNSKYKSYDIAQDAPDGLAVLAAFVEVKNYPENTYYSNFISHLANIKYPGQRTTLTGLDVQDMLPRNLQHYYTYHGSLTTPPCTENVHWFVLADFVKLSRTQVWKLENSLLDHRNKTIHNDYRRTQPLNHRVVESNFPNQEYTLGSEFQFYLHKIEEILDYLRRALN

SMILES | viability (flow cytometry) (H. pylori [1]) | live cells (flow cytometry) (H. pylori [2]) | MIC [3, 11] [µg/mL] | MBC [3, 12] [µg/mL] | % OMV eDNA+/Total OMVs [4, 13] [%] | pOMV eDNA+ count versus untreated [4, 15] | total pOMVs count versus untreated [4, 15] | MIC (L. reuteri DSM 17938; [16]) [µg/mL] | MBC (L. reuteri DSM 17938; [17]) [µg/mL] | CFU count of biofilm ([5]; 72 h) | inhibition of H. pylori biofilm development ([5]; 72 h) | biofilm observed by fluorescence microscopy (Live/Dead) [5] | MIC (H. pylori ATCC43504; [18]) [µg/mL] | MBC (H. pylori ATCC43504; [19]) [µg/mL] | MIC [6, 20] [µg/mL] | MBC [6, 21] [µg/mL] | IC50 (AGS cells) [µM] | MIC range [7] [µg/mL] | Ki (MgCA) [µM] | Ki (HpCAβ [8]) [µM] | also measured
CC1(C)S[C@@H]2[C@H](NC(=O)[C@H](N)c3ccc(O)cc3)C(=O)N2[C@H]1C(=O)O [amoxicillin, reference compound] | around 64% | 3.18 × 10^6 live cells/mL | 1 (≈ 2.74 µM) | 1 (≈ 2.74 µM) | 16.52 | decrease | decrease | 16 (≈ 43.8 µM) | 64 (≈ 175 µM) | 1.92 × 10^7 CFUs | did not inhibit H. pylori biofilm formation | well-structured biofilm with some dead cells | 0.032 (≈ 0.0876 µM) | 0.032 (≈ 0.0876 µM) | 0.25 (≈ 0.684 µM) | 0.25 (≈ 0.684 µM) |  |  |  |  | % OMV eDNA+/Total OMVs ([4]; Biofilm T (treated with sub-MIC concentration)): 36.09%; bOMV eDNA+ versus untreated [4, 14]: no differences; total bOMVs versus untreated [4, 14]: no differences
Cc1ccc(C(C)C)cc1O [carvacrol] |  | 3.80 × 10^4 live cells/mL |  |  | 32.53 |  |  |  |  | No CFUs were observed | ability to inhibit the development of the H. pylori mature biofilm | no biofilm formation |  |  |  |  | 300 ± 6.5 | 16 to 64 | 6.8 | 13.3 | viability (flow cytometry) (H. pylori [2]): 35%; MBC ([3]; ATCC53103): > 16000 µg/mL; MIC ([3]; ATCC53103, 24 h): > 16000 µg/mL; pOMV eDNA+ count versus untreated [4]: no differences were found; total pOMVs count versus untreated [4]: lower count; MBC (L. reuteri DSM 17938; DSM17938): > 8000 µg/mL; MIC (L. reuteri DSM 17938; DSM17938): 8000 µg/mL (≈ 53300 µM); MIC (L. reuteri DSM 17938; DSM17938, 24 h): 8000 µg/mL (≈ 53300 µM); Ki (SmuCA): 86.6 µM; Ki ((UniProt Q9ZK30)): 8.4 µM; biofilm biomass percentage (crystal violet) versus untreated samples [5]: significantly lower; percentage of alamarBlue reduction in respect to the corresponding controls [5]: about 80%; MBC (H. pylori ATCC43504; ATCC43504): 256 µg/mL (≈ 1700 µM); MIC (H. pylori ATCC43504; ATCC43504, 72 h): 128 µg/mL (≈ 852 µM); Ki (PgiCAβ): 28 µM; MBC ([6]; ATCCSD5214): > 16000 µg/mL; MIC ([6]; ATCCSD5214, 24 h): > 16000 µg/mL
Cc1ncc([N+](=O)[O-])n1CCO [metronidazole] |  |  |  |  |  |  |  |  |  |  |  |  |  |  |  |  |  |  |  |  | MIC range [9]: 64 to 256 µg/mL
Cc1ccc(C(C)C)c(O)c1 [thymol] | around 32% | 3.00 × 10^5 live cells/mL | > 16000 | > 16000 | 35.47 | significative difference | significative difference | 4000 (≈ 26600 µM) | > 4000 | No CFUs were observed | ability to inhibit the development of the H. pylori mature biofilm | no biofilm formation | 128 (≈ 852 µM) | 256 (≈ 1700 µM) | > 16000 | > 16000 | 200 ± 6.5 | 64 to 128 | > 100 | 3.4 | Ki (hCA VI): > 100 µM; Ki (hCA I): > 100 µM; MIC (L. reuteri DSM 17938; DSM17938, L. reuteri DSM 17938, text, read-out: MIC): 4000 µg/mL (≈ 26600 µM); Ki (hCA II): > 100 µM; Ki (SmuCA): 84.9 µM; biofilm biomass percentage (crystal violet) versus untreated samples ([5]; sub-MIC 64 µg/mL, 72 h): significantly lower; percentage of alamarBlue reduction in respect to the corresponding controls ([5]; sub-MIC 64 µg/mL, biofilm, 72 h): ~85%; Ki (PgiCAβ): 48.9 µM
NC(N)=Nc1nc(CSCCC(N)=NS(N)(=O)=O)cs1 [famotidine] |  |  |  |  |  |  |  |  |  |  |  |  |  |  |  |  |  |  |  |  | inhibitory profile toward HpCAβ (HpCAβ [10]): nanomolar range
